Experimental data published in PubChem BioAssay (NCI).
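Following 48 hours of exposure in 96-well plates, responses at five concentrations were used to interpolate endpoints linearly. GI50: concentration for 50% inhibition of growth. At the TGI there is no net growth.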

Key:
Assay in all cases: NCI tumour cell line growth inhibition, 48 h
MDA-MB-435 = system: MDA-MB-435
SK-MEL-2 melanoma = system: SK-MEL-2 melanoma
DU-145 prostate = system: DU-145 prostate
MCF7 breast = system: MCF7 breast
HCT-15 colon = system: HCT-15 colon
COLO 205 colon = system: COLO 205 colon
OVCAR-8 ovarian = system: OVCAR-8 ovarian
SK-OV-3 ovarian = system: SK-OV-3 ovarian
OVCAR-5 ovarian = system: OVCAR-5 ovarian
HL-60(TB) leukemia = system: HL-60(TB) leukemia
LOX IMVI melanoma = system: LOX IMVI melanoma
NCI/ADR-RES ovarian = system: NCI/ADR-RES ovarian
NCI-H460 lung = system: NCI-H460 lung
MDA-MB-468 breast = system: MDA-MB-468 breast
OVCAR-4 ovarian = system: OVCAR-4 ovarian
MDA-MB-231 breast = system: MDA-MB-231 breast
K-562 leukemia = system: K-562 leukemia
ACHN renal = system: ACHN renal
HS 578T breast = system: HS 578T breast
786-0 renal = system: 786-0 renal
HCT-116 colon = system: HCT-116 colon
UACC-257 melanoma = system: UACC-257 melanoma
HCC-2998 colon = system: HCC-2998 colon
SF-268 CNS = system: SF-268 CNS
MALME-3M melanoma = system: MALME-3M melanoma
UACC-62 melanoma = system: UACC-62 melanoma
NCI-H522 lung = system: NCI-H522 lung
BT-549 breast = system: BT-549 breast
T-47D breast = system: T-47D breast
UO-31 renal = system: UO-31 renal
SF-539 CNS = system: SF-539 CNS
SR leukemia = system: SR leukemia
NCI-H23 lung = system: NCI-H23 lung
A549 NSCLC = system: A549 NSCLC
OVCAR-3 ovarian = system: OVCAR-3 ovarian
SK-MEL-5 melanoma = system: SK-MEL-5 melanoma
SK-MEL-28 melanoma = system: SK-MEL-28 melanoma
SN12C renal = system: SN12C renal
EKVX NSCLC = system: EKVX NSCLC
MOLT-4 leukemia = system: MOLT-4 leukemia
NCI-H226 lung = system: NCI-H226 lung
M14 melanoma = system: M14 melanoma
SF-295 CNS = system: SF-295 CNS
U251 CNS = system: U251 CNS
HT29 colon = system: HT29 colon
HOP-92 NSCLC = system: HOP-92 NSCLC
CAKI-1 renal = system: CAKI-1 renal
CCRF-CEM leukemia = system: CCRF-CEM leukemia
SNB-19 CNS = system: SNB-19 CNS
TK-10 renal = system: TK-10 renal
KM12 colon = system: KM12 colon
PC-3 prostate = system: PC-3 prostate
SNB-75 CNS = system: SNB-75 CNS
A498 renal = system: A498 renal
RPMI-8226 leukemia = system: RPMI-8226 leukemia
RXF 393 renal = system: RXF 393 renal
HOP-62 NSCLC = system: HOP-62 NSCLC
SW-620 colon = system: SW-620 colon

COc1cncc(-c2ccc3ncnc(N4CCc5ccc(Cl)cc54)c3c2)c1
GI50 (MDA-MB-435): 4.05 µM
TGI (MDA-MB-435): 22.3 µM
GI50 (SK-MEL-2 melanoma): 4.33 µM
TGI (SK-MEL-2 melanoma): 19.7 µM
GI50 (DU-145 prostate): 1.98 µM
TGI (DU-145 prostate): 27 µM
GI50 (MCF7 breast): 1.74 µM
TGI (MCF7 breast): 11.3 µM
GI50 (HCT-15 colon): 3.04 µM
TGI (HCT-15 colon): 19.9 µM
GI50 (COLO 205 colon): 4.4 µM
TGI (COLO 205 colon): 23 µM
GI50 (OVCAR-8 ovarian): 3.98 µM
TGI (OVCAR-8 ovarian): 55.9 µM
GI50 (SK-OV-3 ovarian): 2.81 µM
TGI (SK-OV-3 ovarian): 16.4 µM
GI50 (OVCAR-5 ovarian): 3.13 µM
TGI (OVCAR-5 ovarian): 23.7 µM
TGI (HL-60(TB) leukemia): 6.2 µM
GI50 (LOX IMVI melanoma): 3.28 µM
TGI (LOX IMVI melanoma): 20.5 µM
GI50 (NCI/ADR-RES ovarian): 2.16 µM
TGI (NCI/ADR-RES ovarian): 27.9 µM
GI50 (NCI-H460 lung): 3.65 µM
TGI (NCI-H460 lung): 20.3 µM
GI50 (MDA-MB-468 breast): 0.231 µM
TGI (MDA-MB-468 breast): 2.26 µM
GI50 (OVCAR-4 ovarian): 2.69 µM
TGI (OVCAR-4 ovarian): 22.9 µM
GI50 (MDA-MB-231 breast): 3.43 µM
TGI (MDA-MB-231 breast): 33.1 µM
GI50 (K-562 leukemia): 4.56 µM
TGI (K-562 leukemia): > 100 µM
GI50 (ACHN renal): 1.04 µM
TGI (ACHN renal): 15.5 µM
GI50 (HS 578T breast): 1.48 µM
TGI (HS 578T breast): 6.5 µM
GI50 (786-0 renal): 1.61 µM
TGI (786-0 renal): 15.8 µM
GI50 (HCT-116 colon): 2.97 µM
TGI (HCT-116 colon): 77.7 µM
GI50 (UACC-257 melanoma): 9.01 µM
TGI (UACC-257 melanoma): 28.5 µM
GI50 (HCC-2998 colon): 3.48 µM
TGI (HCC-2998 colon): 19.8 µM
GI50 (SF-268 CNS): 3.02 µM
TGI (SF-268 CNS): 26.9 µM
GI50 (MALME-3M melanoma): 9.11 µM
TGI (MALME-3M melanoma): 24.2 µM
GI50 (UACC-62 melanoma): 2.49 µM
TGI (UACC-62 melanoma): 16.3 µM
GI50 (NCI-H522 lung): 2.17 µM
TGI (NCI-H522 lung): 12.1 µM
GI50 (BT-549 breast): 1.78 µM
TGI (BT-549 breast): 8.41 µM
GI50 (T-47D breast): 1.23 µM
TGI (T-47D breast): 10 µM
GI50 (UO-31 renal): 0.718 µM
TGI (UO-31 renal): 11.8 µM
GI50 (SF-539 CNS): 3.41 µM
TGI (SF-539 CNS): 14.4 µM
GI50 (SR leukemia): 3.03 µM
TGI (SR leukemia): 25.4 µM
GI50 (NCI-H23 lung): 5.33 µM
TGI (NCI-H23 lung): 29.6 µM
GI50 (A549 NSCLC): 1.85 µM
TGI (A549 NSCLC): 18.4 µM
GI50 (OVCAR-3 ovarian): 2.41 µM
TGI (OVCAR-3 ovarian): 18.4 µM
GI50 (SK-MEL-5 melanoma): 2.62 µM
TGI (SK-MEL-5 melanoma): 12.4 µM
GI50 (SK-MEL-28 melanoma): 7.02 µM
TGI (SK-MEL-28 melanoma): 21.9 µM
GI50 (SN12C renal): 2.42 µM
TGI (SN12C renal): 21.3 µM
GI50 (EKVX NSCLC): 1.22 µM
TGI (EKVX NSCLC): 11.5 µM
GI50 (MOLT-4 leukemia): 1.96 µM
TGI (MOLT-4 leukemia): 6.96 µM
GI50 (NCI-H226 lung): 2.04 µM
TGI (NCI-H226 lung): 18.3 µM
GI50 (M14 melanoma): 7.6 µM
TGI (M14 melanoma): 37.4 µM
GI50 (SF-295 CNS): 3.53 µM
TGI (SF-295 CNS): 29.6 µM
GI50 (U251 CNS): 4.24 µM
TGI (U251 CNS): 24 µM
GI50 (HT29 colon): 3.11 µM
TGI (HT29 colon): 20.5 µM
GI50 (HOP-92 NSCLC): 2.24 µM
TGI (HOP-92 NSCLC): 17.8 µM
GI50 (CAKI-1 renal): 0.885 µM
TGI (CAKI-1 renal): 13.8 µM
GI50 (CCRF-CEM leukemia): 3.13 µM
TGI (CCRF-CEM leukemia): 54.1 µM
GI50 (SNB-19 CNS): 3.56 µM
TGI (SNB-19 CNS): 27 µM
GI50 (TK-10 renal): 1.27 µM
TGI (TK-10 renal): 9.58 µM
GI50 (KM12 colon): 2.58 µM
TGI (KM12 colon): 16.4 µM
GI50 (PC-3 prostate): 2.47 µM
TGI (PC-3 prostate): > 100 µM
GI50 (SNB-75 CNS): 0.623 µM
TGI (SNB-75 CNS): 5.25 µM
GI50 (A498 renal): 0.371 µM
TGI (A498 renal): 4.02 µM
GI50 (RPMI-8226 leukemia): 2.97 µM
TGI (RPMI-8226 leukemia): > 100 µM
GI50 (RXF 393 renal): 1.28 µM
TGI (RXF 393 renal): 4.86 µM
GI50 (HOP-62 NSCLC): 2.19 µM
TGI (HOP-62 NSCLC): 24.9 µM
GI50 (SW-620 colon): 6.17 µM
TGI (SW-620 colon): 26.9 µM
